Results from US11104805B2, “High-saturation scarlet color dye ink for high-speed inkjet process” (KOREA INSTITUE OF INDUSTRIAL TECHNOLOGY, priority 2018, dated 2021).
Entries after “also recorded” stand apart in the source; their conditions may differ.

Columns and labels:
Water solubility of dyes = assay type: physicochemical
[1] = Light stability: relative absorbance over time under light irradiation
Method: An absorbance value before light irradiation was set to 1 and relative absorbance values over time were measured.

[2] = UV-Vis absorption spectra of dyes in water; assay type: physicochemical; details: 10^−5 M in water
Text: The UV-Vis absorption spectra of the dyes 1b to 3b measured at 10^−5 M in water are illustrated in FIG. 2, and corresponding data are shown in Table 1 below. […] When the water solubility of the dye increases, the probability of being present as a single molecule increases, and thus the color developability of each dye molecule is increased, resulting in increased color intensity.
In addition, an absorption peak form having two absorption maxima appeared. This is because a single molecule and aggregated molecules have different absorption maxima. Generally, as the concentration becomes lower, the probability of being present as a single molecule increases, and as the concentration increases, the tendency to aggregate becomes stronger, and thus one peak appears at each maximum, but it was confirmed from this experiment that since the two cases were present at a measurement concentration of 10 μM, absorption peaks appeared separately.

[3] = Thermal stability by TGA under N2 atmosphere; assay type: physicochemical
Text: The thermal stability of each sample was investigated by a TGA method under an N2 atmosphere.

## O=S(=O)([O-])c1ccc2c(N=Nc3ccc(S(=O)(=O)[O-])c4ccccc34)c(O)c(S(=O)(=O)[O-])cc2c1.[Na+].[Na+].[Na+] [Acid red 27]
Water solubility of dyes; comparison in words
  water solubility compared with the synthesized perylene dyes (1b to 3b): poorer water solubility; also recorded: deteriorated solubility
[1]; 1,200 minutes
  shift of absorption maxima after final light irradiation: about 4 nm
[1]; 1,200 minutes, absorbance before irradiation set to 1
  relative absorbance after final light irradiation: about 0.5
[1]; after 1200 min light irradiation, first (or only) maximum
  λmax (nm) (after 1200 min): (→ 506) nm
[1]; before light irradiation, first (or only) maximum
  λmax (nm): 502 nm
[1]; light irradiation
  K (photodegradation rate constant): 0.0004945 min⁻¹
[2]; at first (or only) absorption maximum
  εmax: 23000 L/mol/cm
[2]; first (or only) absorption maximum
  λmax (nm) (after 1,200 min): 521 nm
[3]
  Td (degradation temperature): 291 °C

## O=C1c2ccc3c4c(S(=O)(=O)O)cc5c6c(ccc(c7c(S(=O)(=O)O)cc(c2c37)C(=O)N1c1ccc(S(=O)(=O)O)cc1)c64)C(=O)N(c1ccc(S(=O)(=O)O)cc1)C5=O [Dye 3b, N,N′-bis[4-(sulfuric acid)phenyl]-1,7-(disulfuric acid)perylene-3,4,9,10-tetra carboxydiimide]
Water solubility of dyes; in water
  water solubility: ≥ 20 wt %
